Source: patent US20140171417A1, “TRICYCLIC COMPOUNDS” (NOVARTIS AG, priority 2012, published 2014)

Each compound was assayed against T1, CFTR (Homo sapiens, UniProt P13569) (assay: IonWorks Quattro assay (CFTR Inhibitor Assay), whole-cell planar patch clamp). Details: inward current (−100 mV); CHO cells stably expressing WT-CFTR; CFTR activated by 10 μM forskolin; test compound incubated 10 min.
T1 construct: expressed in transfected cells
Format: cell-based
Description: CFTR activity can be quantified by electrophysiology methods, using the whole-cell configuration of the patch clamp technique (Hamill O, Marty A, Neher E, Sakmann B and Sigworth F. ‘Improved patch-clamp techniques for high resolution current recording from cells and cell-free membrane patches.’ Pflugers Archive 1981 391: 85-100). This assay directly measures the currents associated with chloride flow through CFTR channels whilst either maintaining or adjusting the transmembrane voltage. This assay can use either single glass micropipettes or parallel planar arrays to measure CFTR activity from native or recombinant cell systems. Currents measured using parallel planar arrays can be quantified using an appropriately equipped instrument such as the IonWorks Quattro (Molecular Devices Corporation, Sunnyvale, Calif.). The Quattro system can measure CFTR currents from either a single cell per recording well (HT configuration) or alternatively from a population of 64 cells per well (Population Patch Clamp PPC) (Finkel A, Wittel A, Yang N, Handran S, Hughes J, Costantin J. ‘Population patch clamp improves data consistency and success rates in the measurement of ionic currents.’ J Biomol Screen. 2006 August; 11 (5):488-96).
Chinese hamster ovary (CHO) cells stably expressing WT-CFTR channels were used for the IonWorks Quattro experiments. Cells were maintained at 37° C. in 5% v/v CO2 at 100% humidity in MEM alpha medium supplemented with 10% (v/v) FCS, 100 U/mL Penicillin/Streptomycin, and 100 μg/L methotrexate. For experiments, cells were grown in 225 cm^2 tissue culture flasks until almost confluent. Cells were removed from the flask using trypsin-EDTA and resuspended in extracellular recording solution for immediate experimentation.
Cells, at a density of 1.5-2 million per mL, were placed on the Quattro system, added to the planar patch plate and seals allowed to establish for 5-10 mins. After assessing seal resistances (typically >50 MΩ), whole-cell access was obtained by perforation with 100 μg/mL amphotericin B. Baseline currents were measured by a pre-compound scan obtained by application of a voltage ramp from −100 to +100 mV. CFTR was activated by the addition of 10 μM forskolin to each of the 384 wells of the patch plate. After 5 min incubation the post-compound 1 currents were measured, again by application of a voltage ramp from −100 to +100 mV. Test compounds, diluted from 10 mM stocks in DMSO in extracellular solution were then added to the patch plate and were incubated for a further 10 min. The post-compound 2 currents were measured by the application of the same voltage ramp from −100 to +100 mV. The inhibition of CFTR was determined from the difference in current between the forskolin addition (post-compound 1) and the test compound (post-compound 2). This was determined at both −100 mV and +100 mV which represents the inward and outward current respectively.
Extracellular solution (ECS): 145 mM NaCl, 4 mM CsCl, 5 mM D-glucose, 10 mM TES, 1 mM CaCl2, 1 mM MgCl2, pH 7.4 NaOH
Intracellular solution (ICS): 113 mM L-Aspartic acid, 113 mM CsOH, 27 mM CsCl, 1 mM NaCl, 1 mM MgCl2, 1 mM EGTA, 10 mM TES. pH 7.2 with CsOH. Filter sterilized before use.

T1 sequence (P13569 whole entry): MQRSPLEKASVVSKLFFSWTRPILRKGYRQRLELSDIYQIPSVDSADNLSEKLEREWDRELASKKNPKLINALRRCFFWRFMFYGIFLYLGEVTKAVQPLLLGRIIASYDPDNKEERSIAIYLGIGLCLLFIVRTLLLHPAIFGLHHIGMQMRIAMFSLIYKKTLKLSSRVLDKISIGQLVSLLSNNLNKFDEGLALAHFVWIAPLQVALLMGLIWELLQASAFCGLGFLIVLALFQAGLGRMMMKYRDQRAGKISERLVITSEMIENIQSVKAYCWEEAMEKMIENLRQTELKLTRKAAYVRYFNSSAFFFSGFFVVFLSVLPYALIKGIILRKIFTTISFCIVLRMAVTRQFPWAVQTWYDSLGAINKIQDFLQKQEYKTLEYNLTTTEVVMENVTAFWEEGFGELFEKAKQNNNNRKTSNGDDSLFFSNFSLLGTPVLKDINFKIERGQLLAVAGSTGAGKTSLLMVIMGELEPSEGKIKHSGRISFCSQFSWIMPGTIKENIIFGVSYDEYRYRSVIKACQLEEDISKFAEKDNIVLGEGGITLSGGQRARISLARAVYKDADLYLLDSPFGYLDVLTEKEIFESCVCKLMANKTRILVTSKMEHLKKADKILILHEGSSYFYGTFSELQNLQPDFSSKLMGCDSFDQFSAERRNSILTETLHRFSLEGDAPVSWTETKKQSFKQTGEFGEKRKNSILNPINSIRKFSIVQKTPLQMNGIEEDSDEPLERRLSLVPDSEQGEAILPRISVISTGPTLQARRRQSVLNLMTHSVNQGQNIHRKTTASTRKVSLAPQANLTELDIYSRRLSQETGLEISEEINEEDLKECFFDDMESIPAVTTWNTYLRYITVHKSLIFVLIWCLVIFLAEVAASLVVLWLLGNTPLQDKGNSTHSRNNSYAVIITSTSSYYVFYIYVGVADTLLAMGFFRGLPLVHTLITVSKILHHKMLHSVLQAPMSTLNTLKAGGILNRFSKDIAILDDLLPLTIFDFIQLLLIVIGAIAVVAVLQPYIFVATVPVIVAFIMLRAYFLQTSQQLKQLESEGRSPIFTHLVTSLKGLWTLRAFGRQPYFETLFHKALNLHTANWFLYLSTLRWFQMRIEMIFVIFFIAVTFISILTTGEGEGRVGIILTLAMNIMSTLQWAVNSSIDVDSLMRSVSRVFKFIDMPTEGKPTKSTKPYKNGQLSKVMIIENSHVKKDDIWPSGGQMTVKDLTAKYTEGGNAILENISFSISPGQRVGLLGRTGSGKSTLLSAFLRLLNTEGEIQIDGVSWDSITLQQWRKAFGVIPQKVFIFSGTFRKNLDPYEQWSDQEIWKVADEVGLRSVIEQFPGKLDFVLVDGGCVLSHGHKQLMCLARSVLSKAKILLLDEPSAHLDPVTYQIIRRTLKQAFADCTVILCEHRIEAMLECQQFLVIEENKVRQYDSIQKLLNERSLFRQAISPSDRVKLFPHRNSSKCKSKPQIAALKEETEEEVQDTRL

IC50 [µM] | Compound
0.11 | Cc1csc(-c2c3c(=O)n(C)c(=O)n(C)c3c3n2C[C@@H](Cn2ccnc2)S[C@@H]3c2ccc(Cl)o2)n1 (single isomer, unassigned) [Example 28a, 8-((1H-imidazol-1-yl)methyl)-10-(5-chlorofuran-2-yl)-1,3-dimethyl-5-(4-methylthiazol-2-yl)-7,8-dihydro-1H-pyrimido[4′,5′:3,4]pyrrolo[2,1-c][1,4]thiazine-2,4(3H,10H)-dione]
0.29 | Cc1csc(C2CCCn3c(-c4cccc(C#N)c4)c4c(=O)n(C)c(=O)n(C)c4c32)n1 (single isomer, unassigned) [Example 9.1, 3-(1,3-dimethyl-10-(4-methylthiazol-2-yl)-2,4-dioxo-1,2,3,4,7,8,9,10-octahydropyrimido[4,5-a]indolizin-5-yl)benzonitrile]
0.18 | Cn1c(=O)c2c(-c3cccc(F)c3)n3c(c2n(C)c1=O)[C@H](c1ccc(Cl)o1)S[C@@H](CO)C3 (single isomer, unassigned) [Example 12.1b, 10-(5-chlorofuran-2-yl)-5-(3-fluorophenyl)-8-(hydroxymethyl)-1,3-dimethyl-7,8-dihydro-1H-pyrimido[4′,5′:3,4]pyrrolo[2,1-c][1,4]thiazine-2,4(3H,10H)-dione]
0.1 | Cc1csc(-c2c3c(=O)n(C)c(=O)n(C)c3c3n2C[C@H](CO)S[C@H]3c2ccc(Cl)o2)n1 (single isomer, unassigned) [Example 17, 10-(5-chlorofuran-2-yl)-8-(hydroxymethyl)-1,3-dimethyl-5-(4-methylthiazol-2-yl)-7,8-dihydro-1H-pyrimido[4′,5′:3,4]pyrrolo[2,1-c][1,4]thiazine-2,4(3H,10H)-dione]
0.31 | CN(C)C[C@@H]1Cn2c(-c3ccccc3)c3c(=O)n(C)c(=O)n(C)c3c2[C@@H](c2ccc(Cl)o2)S1 (single isomer, unassigned) [Example 14a, 10-(5-chlorofuran-2-yl)-8-((dimethylamino)methyl)-1,3-dimethyl-5-phenyl-7,8-dihydro-1H-pyrimido[4′,5′:3,4]pyrrolo[2,1-c][1,4]thiazine-2,4(3H,10H)-dione]
0.54 | Cn1c(=O)c2c(-c3ccccc3)n3c(c2n(C)c1=O)C(c1ccc(Cl)o1)SC(CO)C3 (single isomer, unassigned) [Example 12.b, 10-(5-chlorofuran-2-yl)-8-(hydroxymethyl)-1,3-dimethyl-5-phenyl-7,8-dihydro-1H-pyrimido[4′,5′:3,4]pyrrolo[2,1-c][1,4]thiazine-2,4(3H,10H)-dione]
0.2 | Cn1c(=O)c2c(-c3ccccc3)n3c(c2n(C)c1=O)C(c1ccc(Cl)o1)SC(CO)C3 (single isomer, unassigned) [Example 12.a, 10-(5-chlorofuran-2-yl)-8-(hydroxymethyl)-1,3-dimethyl-5-phenyl-7,8-dihydro-1H-pyrimido[4′,5′:3,4]pyrrolo[2,1-c][1,4]thiazine-2,4(3H,10H)-dione]
0.16 | Cc1csc(-c2c3c(=O)n(C)c(=O)n(C)c3c3n2C[C@@H](CN2CCOC2=O)S[C@@H]3c2ccc(Cl)o2)n1 (single isomer, unassigned) [Example 30a, 10-(5-chlorofuran-2-yl)-1,3-dimethyl-5-(4-methylthiazol-2-yl)-8-((2-oxooxazolidin-3-yl)methyl)-7,8-dihydro-1H-pyrimido[4′,5′:3,4]pyrrolo[2,1-c][1,4]thiazine-2,4(3H,10H)-dione]
0.15 | Cc1csc(-c2c3c(=O)n(C)c(=O)n(C)c3c3n2C[C@H](CNS(C)(=O)=O)S[C@H]3c2ccc(Cl)o2)n1 (single isomer, unassigned) [Example 26a, N-((10-(5-chlorofuran-2-yl)-1,3-dimethyl-5-(4-methylthiazol-2-yl)-2,4-dioxo-2,3,4,7,8,10-hexahydro-1H-pyrimido[4′,5′:3,4]pyrrolo[2,1-c][1,4]thiazin-8-yl)methyl)methanesulfonamide]
5.38 | Cc1csc(-c2c3c(=O)n(C)c(=O)n(C)c3c3n2C[C@H](CN)S[C@H]3c2ccc(Cl)o2)n1 (single isomer, unassigned) [Example 19, 8-(aminomethyl)-10-(5-chlorofuran-2-yl)-1,3-dimethyl-5-(4-methylthiazol-2-yl)-7,8-dihydro-1H-pyrimido[4′,5′:3,4]pyrrolo[2,1-c][1,4]thiazine-2,4(3H,10H)-dione]

Compound | IC50 [µM]
Cn1c(=O)c2c(-c3ccccc3)n3c(c2n(C)c1=O)[C@H](c1ccc(Cl)o1)SCC3 [Example 1.1.1, (R)-10-(5-chlorofuran-2-yl)-1,3-dimethyl-5-phenyl-7,8-dihydro-1H-pyrimido[4′,5′:3,4]pyrrolo[2,1-c][1,4]thiazine-2,4(3H,10H)-dione] | 0.63
Cn1c(=O)c2c(C3=CCCCC3)n3c(c2n(C)c1=O)C(c1ccc(Cl)o1)SCC3 (single isomer, unassigned) [Example 3.1.2, 10-(5-chlorofuran-2-yl)-5-(cyclohex-1-en-1-yl)-1,3-dimethyl-7,8-dihydro-1H-pyrimido[4′,5′:3,4]pyrrolo[2,1-c][1,4]thiazine-2,4(3H,10H)-dione] | 1.51
Cc1nnc(-c2c3c(=O)n(C)c(=O)n(C)c3c3n2CCSC3c2ccc(Cl)o2)o1 (racemic) [Example 15.9, 10-(5-Chlorofuran-2-yl)-1,3-dimethyl-5-(5-methyl-1,3,4-oxadiazol-2-yl)-7,8-dihydro-1H-pyrimido[4′,5′:3,4]pyrrolo[2,1-c][1,4]thiazine-2,4(3H,10H)-dione] | 1.9
Cc1ccc(C2SCCn3c(-c4ccccc4)c4c(=O)n(C)c(=O)n(C)c4c32)s1 (racemic) [Example 1.10, 1,3-Dimethyl-10-(5-methylthiophen-2-yl)-5-phenyl-7,8-dihydro-1H-pyrimido[4′,5′:3,4]pyrrolo[2,1-c][1,4]thiazine-2,4(3H,10H)-dione] | 8.08
